Results on one molecule are retold here after patent US20220213092A1, “BICYCLIC PYRAZOLE BRUTON'S TYROSINE KINASE INHIBITORS” (AbbVie Inc., priority 2020, published 2022).

Each structure is given as a SMILES string.

Test [1] addresses T1, Phosphorylation of Y223 of BTK (Homo sapiens, UniProt Q06187).
T1 construct: host or cells: healthy human whole blood, 3 donors
Put plainly: Whole blood compound screening, phosphorylation of Y223 site of BTK (MSD assay). Type of test: cell-based. As to conditions: healthy human whole blood, 2 hours at 37° C., 3 separate donors; read-out: WB BTK-pY223 EC50. A digest of the protocol: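 Heparinized human whole blood from 3 donors treated 2 h at 37 °C with compounds (8 points, top 10 μM, 1:4 dilution, 0.2% DMSO), then lysed. BTK pY223 quantified by MSD sandwich immunoassay (anti-BTK capture, anti-pY223 detection); EC50 from concentration response.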

Test [2] deals with BLK (Homo sapiens, UniProt P51451). Put plainly: Other kinase MSA: BLK. Type of test: biochemical. As for the experimental part:
Kinase activity, unless otherwise indicated, was measured in vitro using an electrophoretic mobility shift assay (MSA). The phosphorylation of a peptide substrate by BTK and other kinases was measured. The kinase reactions were assembled in a total volume of 25 μL per well in 384 well plates. The following was added to each well: compound buffer (or control); enzyme buffer; and substrate buffer, as further described below.
Enzyme and compound/inhibitor were optionally pre-incubated. To each well was added: 8 μL of 2.5×ATP and substrate in 1× Master Buffer (1× Master Buffer as described above). The plate was incubated at room temperature for 3 hours. […] OG488 was Oregon Green dye, which was conjugated to the peptide substrate. […] The kinase activity for the kinases in Table 3 were measured at 3 hours incubation time, except that in the case of MAP2K1 and MAP2K2 assay, pre-activation of ERK was done for 30 min with 6 μM of ATP, and then the detection of activated ERK in the presence of compounds was done after 60 minutes of incubation.
The terminated reactions were analyzed using a 12 channel LABCHIP® 3000 microfluidic detection instrument (available from Caliper Life Sciences, Waltham, Mass.). […] Change in the relative fluorescence intensity of the substrate and product peaks was the parameter measured, reflecting enzyme activity. […]

Sequence of BLK (P51451 whole entry, species assumed): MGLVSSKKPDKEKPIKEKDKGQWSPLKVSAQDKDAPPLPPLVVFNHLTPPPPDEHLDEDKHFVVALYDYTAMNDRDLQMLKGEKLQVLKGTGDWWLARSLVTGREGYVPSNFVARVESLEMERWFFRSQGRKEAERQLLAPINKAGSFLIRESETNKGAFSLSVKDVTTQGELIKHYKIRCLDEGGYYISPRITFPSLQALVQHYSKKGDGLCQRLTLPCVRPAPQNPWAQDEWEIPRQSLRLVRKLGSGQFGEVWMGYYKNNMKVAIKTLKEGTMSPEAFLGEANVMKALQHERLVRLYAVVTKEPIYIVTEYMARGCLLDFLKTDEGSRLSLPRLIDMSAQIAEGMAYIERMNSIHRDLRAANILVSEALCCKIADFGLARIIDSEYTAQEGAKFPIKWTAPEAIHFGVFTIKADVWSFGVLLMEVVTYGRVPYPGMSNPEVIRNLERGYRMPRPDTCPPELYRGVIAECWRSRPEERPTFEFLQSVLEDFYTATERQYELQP
T1 sequence (Q06187 whole entry): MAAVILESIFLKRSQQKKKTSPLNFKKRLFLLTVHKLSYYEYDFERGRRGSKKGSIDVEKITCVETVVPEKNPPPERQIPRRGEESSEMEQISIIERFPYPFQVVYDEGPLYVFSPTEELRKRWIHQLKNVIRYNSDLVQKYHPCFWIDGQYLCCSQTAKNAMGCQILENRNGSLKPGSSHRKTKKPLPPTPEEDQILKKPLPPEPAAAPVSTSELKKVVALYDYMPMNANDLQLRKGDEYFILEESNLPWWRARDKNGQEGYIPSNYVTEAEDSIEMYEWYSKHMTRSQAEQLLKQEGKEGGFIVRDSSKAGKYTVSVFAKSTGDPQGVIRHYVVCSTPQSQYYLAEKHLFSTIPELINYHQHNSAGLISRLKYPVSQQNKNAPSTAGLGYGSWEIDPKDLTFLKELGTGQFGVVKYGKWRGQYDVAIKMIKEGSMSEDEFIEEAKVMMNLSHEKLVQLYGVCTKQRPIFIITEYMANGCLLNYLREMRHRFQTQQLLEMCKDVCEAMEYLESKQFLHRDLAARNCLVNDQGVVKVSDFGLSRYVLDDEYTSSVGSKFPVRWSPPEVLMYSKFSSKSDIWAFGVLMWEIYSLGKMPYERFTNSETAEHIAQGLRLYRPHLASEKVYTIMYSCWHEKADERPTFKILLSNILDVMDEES

The EC50 is the concentration at which the effect is half-maximal. The term IC50 denotes the concentration that gives 50% inhibition. Lower therefore signals higher potency. For the molecule `C=CC(=O)N1CCN([C@@H]2CCNc3c2nn(-c2ccc(Oc4ccccc4)cc2)c3C(N)=O)CC1` [Example 6, (7R)-2-(4-phenoxyphenyl)-7-[4-(prop-2-enoyl)piperazin-1-yl]-4,5,6,7-tetrahydro-2H-pyrazolo[4,3-b]pyridine-3-carboxamide], in test [1], the EC50 was 24.1 nM. Also, inhibition in test [2] was half-maximal at 137 nM (IC50).
